From article PMC5316400, “Validation of precision-cut liver slices to study drug-induced cholestasis: a transcriptomics approach” (Archives of Toxicology, 2016)

Tests used:
[1] = tested on: Genes involved in unfolded protein response (UPR); test: Microarray gene expression in human PCLS exposed to cholestatic drugs: unfolded protein response genes; assay type: cell-based; conditions: 24 h, 60 μM bile acid mix
Experimental: (§1) Precision-cut liver slices of 5 mm diameter and 250 μm thickness were prepared (de Graaf et al. [2010]). At this thickness, full penetration of substrates has been shown. PCLS were made using the Krumdieck tissue slicer (Alabama R&D, Munford, AL, USA) in ice-cold Krebs buffer at pH 7.42, enriched with glucose to a final concentration of 25 mM, saturated with carbogen (95 % O2/5 % CO2). Immediately after the slices were made, they were placed in ice-cold University of Wisconsin organ preservation solution (UW, Dupont Critical Care, Waukegan, IL, USA) and stored on ice until the beginning of the experiment. Slices were pre-incubated individually in 12-well plates in 1.3 ml of Williams Medium E with glutamax-1 (Gibco, Invitrogen, Paisley, Scotland) supplemented with 25 mM D-glucose and 50 μg/ml gentamycin (Gibco, Invitrogen, Paisley, Scotland). In the incubator (Sanyo CO2/O2 Incubator, PANASONIC, Secaucus, NJ, USA), the plates were gently shaken (90 times/min) for 1 h under 80 % O2 and 5 % CO2 atmosphere at 37 °C. This pre-incubation allows the slices to restore their ATP levels. […] The plates were incubated under the same conditions for 24 h. All incubation conditions were carried out in triplicate. Each experiment was performed in slices of 6 different human livers (Table 1). Slices were harvested for ATP assay in 100 mM Tris buffer with 2 mM EDTA and for RNA isolation in RNAlater. The bile acid mix was added to the medium in order to create an environment similar to the physiological concentration in the portal vein. The composition of the serum bile acids was according to Scherer et al. ([2009]). Pilot experiments were performed to find out the non-toxic concentration of the bile acid mix.
(§2) Maxwell® 16 LEV Total RNA purification kit (Promega, The Netherlands) with Maxwell® 16 LEV Instrument was used to isolate RNA from the samples. Immediately after isolation, the RNA quality was assessed by measuring the 260/280 and 260/230 ratios, and the concentration was measured with the ND-1000 spectrophotometer (Fisher Scientific, Landsmeer, The Netherlands). The quality (RIN value) and quantity of the RNA were determined by high-throughput Caliper GX LabChip RNA kit (Caliper).
(§3) Ambion Illumina Total Prep RNA kit was used to transcribe 300 ng RNA to cRNA according to the manufacturer’s instructions. A total of 750 ng of cRNA was hybridized at 58 °C for 16 h to the Illumina HumanHT-12 v4 Expression BeadChips. BeadChips were scanned using Iscan software, and IDAT files were generated (Illumina, San Diego, CA, USA).
(§4) GenomeStudio software (Illumina) was used to read the IDAT files and generate raw expression values. The ArrayAnalysis web service (www.arrayanalysis.org/) was used for further preprocessing the data, which uses lumi R package (Eijssen et al. [2013]). Raw gene expression data were background-corrected (bgAdjust), variance-stabilized (VST) and normalized by quantile normalization. After normalization, the data were corrected for batch differences owing to RNA isolation and hybridization using the ComBat method implemented in the swamp package in R (Lauss et al. [2013]). Differentially expressed genes in slices exposed to the cholestatic drugs in the presence of bile acids versus the slices exposed to vehicle (DMSO) in the presence of bile acids were identified using the unpaired moderated t test in the limma package (Ritchie et al. [2015]). Genes that are regulated with a criterion of fold change of 1.5 (≤ or ≥1.5), and FDR-corrected p value ≤0.05 (Benjamini and Hochberg method) were chosen for pathway analysis. To compare our data with the scarcely available human in vivo data, human in vivo late-stage cholestasis data were downloaded from the Gene Expression Omnibus database (GSE46960).

[2] = tested on: human precision-cut liver slices (PCLS); test: Transcriptomics of human PCLS: differentially regulated genes; assay type: cell-based; conditions: fold change of 1.5 and adjusted p value 0.05, 24 h, 60 μM bile acid mix
Experimental: as §1, §2, §3, §4

[3] = tested on: Genes involved in hepatic cholestasis pathway; test: Microarray gene expression in human PCLS exposed to cholestatic drugs: hepatic cholestasis pathway genes; conditions: 24 h, 60 μM bile acid mix
Experimental: as §1, §2, §3, §4

[4] = tested on: Genes involved in the FXR pathway; test: Microarray gene expression in human PCLS exposed to cholestatic drugs: FXR pathway genes; conditions: 24 h, 60 μM bile acid mix
Experimental: as §1, §2, §3, §4

[5] = C max in systemic blood of adult patients after a therapeutic dose; conditions: highest toxic concentration tested in human PCLS vs C max in adult patients
[6] = adult patients, therapeutic dose, systemic blood; no reference given; cited from earlier work

## S=C=Nc1cccc2ccccc12 [AN, Alpha-naphthylisothiocyanate]
[1]; 75 μM
  ATF4 fold change: 2.3
  DDIT3 (CHOP) fold change: 2.9
  DNAJB9 fold change: 2.7
  ERN1 fold change: 1.5
  HSPA9 fold change: 1.9
  HSPH1 fold change: 2.0
  INSIG1 fold change: −2.5
  NFE2L2 fold change: 1.5
  SYVN1 fold change: 1.5
[2]; 25 μM
  Number of regulated genes: 2
[2]; 50 μM
  Number of regulated genes: 183
[2]; 75 μM
  Number of regulated genes: 458
[3]; 75 μM
  ABCB4 fold change: −2.1
  ABCB11 fold change: −1.3
  ABCC3 fold change: −1.2
  ABCG5 fold change: −1.6
  ABCG8 fold change: −2.3
  CYP8B1 fold change: −3.4
  CYP27A1 fold change: −1.4
  GCGR fold change: −1.9
  IL1B fold change: −1.2
  IL1RL1 fold change: 2.3
  IL1RN fold change: 1.1
  IRAK2 fold change: 1.6
  JUN fold change: 1.3
  NR0B2 fold change: −1.2
  NR1H3 fold change: −1.1
  NR1H4 fold change: −1.1
  PPRC1 fold change: 1.6
  RXRA fold change: −1.6
  SLC22A7 fold change: −2.9
  TNFRSF1B fold change: −1.5
[4]; 75 μM
  ABCB4 fold change: −2.1
  ABCB11 fold change: −1.8
  ABCG5 fold change: −1.5
  ABCG8 fold change: −2.3
  APOC2 fold change: −1.8
  APOC4 fold change: −1.8
  APOF fold change: −1.9
  BAAT fold change: −1.8
  C3 fold change: −1.7
  CYP8B1 fold change: −3.5
  CYP27A1 fold change: −1.3
  FASN fold change: −1.9
  FBP1 fold change: −1.8
  FETUB fold change: −2.0
  FGA fold change: −2.1
  ITIH4 fold change: −1.9
  KNG1 fold change: −2.3
  NR0B2 (SHP) fold change: −1.8
  NR1H3 (LXR) fold change: −1.8
  NR1H4 (FXR) fold change: −1.8
  PON1 fold change: −2.0
  RXRA fold change: −1.5
  SCARB1 fold change: −2.2
  SDC1 fold change: −2.0
  SERPINF2 fold change: −1.8
  SLC22A7 fold change: −2.9
  SLC51B fold change: −1.9
  SULT2A1 fold change: −2.1

## CN(C)CCCN1c2ccccc2Sc2ccc(Cl)cc21 [CP, chlorpromazine]
[1]; 30 μM
  ATF4 fold change: 1.5
  DDIT3 (CHOP) fold change: 1.2
  DNAJB9 fold change: 1.0
  ERN1 fold change: 1.0
  HSPA9 fold change: 1.1
  HSPH1 fold change: 1.0
  INSIG1 fold change: 1.3
  NFE2L2 fold change: 1.1
  SYVN1 fold change: 1.0
[5]
  toxic concentration used in PCLS study relative to C max: ~ 70 × C max
[2]; 10 μM
  Number of regulated genes: 1
[2]; 20 μM
  Number of regulated genes: 2
[2]; 30 μM
  Number of regulated genes: 61
[3]; 30 μM
  ABCB4 fold change: −2.0
  ABCB11 fold change: −1.4
  ABCC3 fold change: −1.1
  ABCG5 fold change: −1.4
  ABCG8 fold change: −1.7
  CYP8B1 fold change: −2.3
  CYP27A1 fold change: −1.3
  GCGR fold change: −1.7
  IL1B fold change: −1.1
  IL1RL1 fold change: 1.4
  IL1RN fold change: 1.3
  IRAK2 fold change: 1.2
  JUN fold change: 1.5
  NR0B2 fold change: −1.6
  NR1H3 fold change: −1.2
  NR1H4 fold change: −1.2
  PPRC1 fold change: 1.2
  RXRA fold change: −1.3
  SLC22A7 fold change: −2.6
  TNFRSF1B fold change: 1.0
[6]
  Cmax: 420 nM
[4]; 30 μM
  ABCB4 fold change: −2.0
  ABCB11 fold change: −1.7
  ABCG5 fold change: −1.4
  ABCG8 fold change: −1.7
  APOC2 fold change: −1.4
  APOC4 fold change: −1.8
  APOF fold change: −1.9
  BAAT fold change: −1.5
  C3 fold change: −1.5
  CYP8B1 fold change: −2.3
  CYP27A1 fold change: −1.1
  FASN fold change: −1.4
  FBP1 fold change: −2.0
  FETUB fold change: −1.8
  FGA fold change: −1.7
  ITIH4 fold change: −1.4
  KNG1 fold change: −1.8
  NR0B2 (SHP) fold change: −1.3
  NR1H3 (LXR) fold change: −1.3
  NR1H4 (FXR) fold change: −1.4
  PON1 fold change: −1.9
  RXRA fold change: −1.1
  SCARB1 fold change: −1.6
  SDC1 fold change: −1.4
  SERPINF2 fold change: −1.5
  SLC22A7 fold change: −2.6
  SLC51B fold change: −1.9
  SULT2A1 fold change: −1.9
